Results from patent US20260217688A1, “INHIBITORS OF JAK2” (Llydaw Therapeutics, Inc., priority 2022, published 2026).

Columns and labels:
JAK2 JH2 = molecular target: T1, JAK2 JH2 (Homo sapiens, UniProt O60674); assay: JAK2 JH2 TR-FRET Assay; assay type: binding; details: JAK2 JH2 1 nM, Tracer ZE84-0003 10 nM
T1 construct: Enzyme: JAK2 JH2, His-Avi-Tag, Biotin-Labeled (BPS Bioscience, Cat #79074) 1 nM; His; purchased BPS Bioscience 79074
Procedure: Assay Buffer 1×: • 20 mM HEPES pH 7.2-7.4; • 10 mM MgCl2; • 0.015% Brij-35; • 2 mM DTT; • 0.05 mg/ml BSA.
Final assay concentrations: • DMSO: 0.25%; • Streptavidin Tb-cryptate (Cisbio, Cat #610SATLB) 0.2 nM; • Enzyme: JAK2 JH2, His-Avi-Tag, Biotin-Labeled (BPS Bioscience, Cat #79074) 1 nM; • Probe: Tracer ZE84-0003 (ChemRar) 10 nM.
Materials: • Reaction plate: ProxiPlate-384 Plus White Plate (PerkinElmer); • Dilution plate: Diamond Well Plate (Axygen, Cat #P-384-120 SQ-C-S); • Compounds plate: Diamond Well Plate (Axygen, Cat #P-384-120 SQ-C-S).
Assay protocol: • 1. Prepare 400× solutions of compounds in DMSO into Compounds plate; • 2. Prepare Dilution plate: add 39 μL of 1× Assay buffer per well of Dilution plate; • 3. Prepare 2×Tb-cryptate mix in 1× Assay buffer. Add 10 μL of 2×Tb-cryptate mix to K-(Tb-cryptate and Probe without Enzyme) wells and blank (Tb-cryptate without Probe and Enzyme) wells; • 4. Add JAK2 JH2 into the rest of 2×Tb-cryptate mix to make 2×JAK2 JH2+Tb-cryptate mix. Add 10 μL per well into Reaction plate; • 5. Centrifuge plate at 200 g for 1 min; • 6. Dilute 1 μL of 400× compounds in 39 μL 1× Assay buffer in Dilution plate; • 7. Add 2 μL of 10× compounds from Dilution plate to Reaction plate with 10 μL of JAK2 JH2+Tb-cryptate mix; • 8. Centrifuge plate at 200 g for 1 min; • 9. Pre-incubate Reaction plate with compounds 15 min; • 10. Prepare 2.5× Tracer mix; • 11. Add 8 μL of 2.5× Tracer mix into appropriate wells of Reaction plate; • 12. Centrifuge plate at 800 g for 3 min; • 13. Incubate at rt for 15 min; • 14. Measure Fluorescence using Microplate Reader (Ex: TR, Em1/Em2: 482/520). The results of this assay are shown in the Table B. The values of EC50 shown as a letters A-D, where: A≤0.01 μM; 0.01 μM<B≤0.05 μM; 0.05 μM<C≤0.1 μM; D>0.1.

Ba/F3 (JAK2 V617F) cells = assay: Proliferation inhibition assay (CellTiter-Glo), Ba/F3 JAK2 V617F; assay type: cell-based; details: Mus musculus, BaF3; without IL3, 72 h; read-out: Ba/F3 JAK2 V617F, CC50 3 days
Procedure: (§1) Ba/F3 (JAK2 wt) (ABM, T3076) cells and Ba/F3 (JAK2 V617F) (WuXi AppTec) cells were grown in RPMI-1640 (Gibco, cat. number 21870) supplemented with 10% FBS (Hyclone Laboratories Inc, Cat #SV30160.03), 1× Antibiotic-antimycotic (Gibco, Cat #15240-062), 2× Sodium pyruvate (Paneco, cat #F023), 2× Essential amino acids (Paneco, cat #F115/100), 1× Non-Essential amino acids (Paneco, cat #F116) at 37° C. in 5% CO2 atmosphere.
(§2) For the proliferation inhibition assay Ba/F3 (JAK2 wt) and Ba/F3 (JAK2 V617F) cells were seeded into a CellBIND® 384-well Flat Clear Bottom Black Polystyrene Microplates (Corning, USA, Cat #3770) at a density of 4000 cells per well in complete culture medium with or without 10 ng/ml rmIL-3 (RD systems, USA, Cat #403-ML-025) using Biomek FX/NX (384) liquid handler, 45 μl of cell suspension in complete culture medium per well. 500× compound's stocks in DMSO (Sigma Cat #D2650) were prepared in compounds plate (Diamond Well Plate, Axigen, Cat #P-384-120 SQ-C-S) applying Biomek 2000. 1 μl of 500× compounds stock was added to 49 μl of complete culture medium into Dilution plate (Diamond Well Plate, Axigen, Cat #P-384-120 SQ-C-S), mixed and then 5 μl of 10× compounds solution was transferred to cells using Biomek FX/NX (384) liquid handler. The centrifugation at 100 g for 1 min at Eppendorf 5810 followed. Final DMSO concentration in assay was 0.2%. All treatments were performed in technical and biological duplicates. Treated cells were incubated for 72 h at 37° C. with 5% CO2.
(§3) After 3 days of incubation, CellTiter-Glo Luminescent Cell Viability Assay (Promega) was performed. 10 μl of CellTiter-Glo (Promega, CAT #G7572) was added to the cells using Biomek FX/NX (384) liquid handler. The assay plate was centrifuged at 100 g for 1 min and luminescence signal was measured using Microplate Reader (CLARIOStar).

[1] = as above; assay type: cell-based; details: mouse, Ba/F3 (JAK2 V617F) cells; with 10 ng/ml rmIL-3, 72 h; read-out: Ba/F3 JAK2 V617F + IL3, CC50 3 days
Procedure: as §1, §2, §3

[2] = Proliferation inhibition assay (CellTiter-Glo), Ba/F3 JAK2 wt; assay type: cell-based; details: mouse, Ba/F3 (JAK2 wt) cells
Procedure: as §1, §2, §3

[3] = with 10 ng/ml rmIL-3, 72 h, read-out: Ba/F3 JAK2 wt + IL3, CC50 3 days
[4] = without IL3, 72 h, read-out: Ba/F3 JAK2 wt, CC50 3 days

T1 sequence (O60674 545-809 limits assumed): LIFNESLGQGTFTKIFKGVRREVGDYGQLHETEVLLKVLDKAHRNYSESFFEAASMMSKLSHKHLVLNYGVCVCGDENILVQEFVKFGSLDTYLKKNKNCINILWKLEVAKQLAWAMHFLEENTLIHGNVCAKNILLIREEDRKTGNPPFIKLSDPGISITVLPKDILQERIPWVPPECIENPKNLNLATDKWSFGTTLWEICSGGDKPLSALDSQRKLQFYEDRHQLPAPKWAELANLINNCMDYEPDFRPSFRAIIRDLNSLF

## COc1c(Nc2nc(Nc3cnn(-c4ccccc4)c3)ncc2C(N)=O)cccc1-c1ncn(C)n1 [Compound 6, 4-((2-Methoxy-3-(1-methyl-1H-1,2,4-triazol-3-yl)phenyl)amino)-2-((1-phenyl-1H-pyrazol-4-yl)amino)pyrimidine-5-carboxamide]
JAK2 JH2
  EC50: 0.01 to 0.05 µM
Ba/F3 (JAK2 V617F) cells
  CC50: ≤ 0.5 µM
[1]
  CC50 at 72 h: ≤ 0.5 µM
[2]; [3]
  CC50 at 72 h: > 10 µM
[2]; [4]
  CC50 at 72 h: > 10 µM

## COc1c(Nc2nc(Nc3cnn(C4CCNCC4)c3)ncc2C(N)=O)cccc1-c1ncn(C)n1 [Compound 7, 4-((2-Methoxy-3-(1-methyl-1H-1,2,4-triazol-3-yl)phenyl)amino)-2-((1-(piperidin-4-yl)-1H-pyrazol-4-yl)amino)pyrimidine-5-carboxamide 2,2,2-trifluoroacetate]
JAK2 JH2
  EC50: 0.01 to 0.05 µM
Ba/F3 (JAK2 V617F) cells
  CC50: 1 to 5 µM
[1]
  CC50 at 72 h: > 10 µM
[2]; [3]
  CC50 at 72 h: > 10 µM
[2]; [4]
  CC50 at 72 h: > 10 µM

## COc1c(Nc2nc(Nc3cnn(C4CCNCC4)c3)ncc2C(N)=O)cccc1-c1nc2ccccc2o1 [Compound 8, 4-[3-(1,3-benzoxazol-2-yl)-2-methoxy-anilino]-2-[[1-(4-piperidyl)pyrazol-4-yl]amino]pyrimidine-5-carboxamide]
JAK2 JH2
  EC50: ≤ 0.01 µM
Ba/F3 (JAK2 V617F) cells
  CC50: 1 to 5 µM
[1]
  CC50 at 72 h: 5 to 10 µM
[2]; [3]
  CC50 at 72 h: > 10 µM
[2]; [4]
  CC50 at 72 h: > 10 µM

## COc1c(Nc2nc(Nc3cnn(C4CCCCC4)c3)ncc2C(N)=O)cccc1-c1ncn(C)n1 [Compound 11, 2-[(1-cyclohexylpyrazol-4-yl)amino]-4-[2-methoxy-3-(1-methyl-1,2,4-triazol-3-yl)anilino]pyrimidine-5-carboxamide]
JAK2 JH2
  EC50: ≤ 0.01 µM
Ba/F3 (JAK2 V617F) cells
  CC50: ≤ 0.5 µM
[1]
  CC50 at 72 h: ≤ 0.5 µM
[2]; [3]
  CC50 at 72 h: 1 to 5 µM
[2]; [4]
  CC50 at 72 h: 1 to 5 µM

## COc1c(Nc2nc(Nc3cnn(C)c3)ncc2C(N)=O)cccc1-c1nc2ccccc2o1 [Compound 12, 4-[3-(1,3-benzoxazol-2-yl)-2-methoxy-anilino]-2-[(1-methylpyrazol-4-yl)amino]pyrimidine-5-carboxamide]
JAK2 JH2
  EC50: 0.01 to 0.05 µM
Ba/F3 (JAK2 V617F) cells
  CC50: ≤ 0.5 µM
[1]
  CC50 at 72 h: 1 to 5 µM
[2]; [3]
  CC50 at 72 h: > 10 µM
[2]; [4]
  CC50 at 72 h: > 10 µM

## COc1c(Nc2nc(Nc3cnn(C4CCOCC4)c3)ncc2C(N)=O)cccc1-c1ncn(C)n1 [Compound 14, 4-[2-methoxy-3-(1-methyl-1,2,4-triazol-3-yl)anilino]-2-[(1-tetrahydropyran-4-ylpyrazol-4-yl)amino]pyrimidine-5-carboxamide]
JAK2 JH2
  EC50: ≤ 0.01 µM
Ba/F3 (JAK2 V617F) cells
  CC50: ≤ 0.5 µM
[1]
  CC50 at 72 h: 5 to 10 µM
[2]; [3]
  CC50 at 72 h: > 10 µM
[2]; [4]
  CC50 at 72 h: > 10 µM

## COc1c(Nc2nc(Nc3cnn(C(C)C)c3)ncc2C(N)=O)cccc1-c1nc2ccccc2o1 [Compound 16, 4-[3-(1,3-benzoxazol-2-yl)-2-methoxy-anilino]-2-[(1-isopropylpyrazol-4-yl)amino]pyrimidine-5-carboxamide]
JAK2 JH2
  EC50: 0.01 to 0.05 µM
Ba/F3 (JAK2 V617F) cells
  CC50: ≤ 0.5 µM
[1]
  CC50 at 72 h: 0.5 to 1 µM
[2]; [3]
  CC50 at 72 h: 5 to 10 µM
[2]; [4]
  CC50 at 72 h: > 10 µM

## COc1c(Nc2nc(Nc3c(C)nn(C)c3C)ncc2C(N)=O)cccc1-c1ncn(C)n1 [Compound 17, 4-[2-methoxy-3-(1-methyl-1,2,4-triazol-3-yl)anilino]-2-[(1,3,5-trimethylpyrazol-4-yl)amino]pyrimidine-5-carboxamide]
JAK2 JH2
  EC50: > 0.1 µM
Ba/F3 (JAK2 V617F) cells
  CC50: > 10 µM
[1]
  CC50 at 72 h: > 10 µM
[2]; [3]
  CC50 at 72 h: > 10 µM
[2]; [4]
  CC50 at 72 h: > 10 µM

## CCn1nc(C)c(Nc2ncc(C(N)=O)c(Nc3cccc(-c4ncn(C)n4)c3OC)n2)c1C [Compound 18, 2-[(1-ethyl-3,5-dimethyl-pyrazol-4-yl)amino]-4-[2-methoxy-3-(1-methyl-1,2,4-triazol-3-yl)anilino]pyrimidine-5-carboxamide]
JAK2 JH2
  EC50: > 0.1 µM
Ba/F3 (JAK2 V617F) cells
  CC50: 5 to 10 µM
[1]
  CC50 at 72 h: > 10 µM
[2]; [3]
  CC50 at 72 h: > 10 µM
[2]; [4]
  CC50 at 72 h: > 10 µM

## COc1c(Nc2nc(Nc3cnn(CC4CCCCC4)c3)ncc2C(N)=O)cccc1-c1ncn(C)n1 [Compound 22, 2-[[1-(cyclohexylmethyl)pyrazol-4-yl]amino]-4-[2-methoxy-3-(1-methyl-1,2,4-triazol-3-yl)anilino]pyrimidine-5-carboxamide]
JAK2 JH2
  EC50: 0.01 to 0.05 µM
Ba/F3 (JAK2 V617F) cells
  CC50: ≤ 0.5 µM
[1]
  CC50 at 72 h: 1 to 5 µM
[2]; [3]
  CC50 at 72 h: 5 to 10 µM
[2]; [4]
  CC50 at 72 h: 5 to 10 µM

## COc1c(Nc2nc(Nc3cnn(CCC(C)C)c3)ncc2C(N)=O)cccc1-c1ncn(C)n1 [Compound 24, 2-[(1-isopentylpyrazol-4-yl)amino]-4-[2-methoxy-3-(1-methyl-1,2,4-triazol-3-yl)anilino]pyrimidine-5-carboxamide]
JAK2 JH2
  EC50: 0.01 to 0.05 µM
Ba/F3 (JAK2 V617F) cells
  CC50: ≤ 0.5 µM
[1]
  CC50 at 72 h: 0.5 to 1 µM
[2]; [3]
  CC50 at 72 h: 5 to 10 µM
[2]; [4]
  CC50 at 72 h: > 10 µM

## CCCCCCn1cc(Nc2ncc(C(N)=O)c(Nc3cccc(-c4ncn(C)n4)c3OC)n2)cn1 [Compound 26, 2-[(1-hexylpyrazol-4-yl)amino]-4-[2-methoxy-3-(1-methyl-1,2,4-triazol-3-yl)anilino]pyrimidine-5-carboxamide]
JAK2 JH2
  EC50: 0.01 to 0.05 µM
Ba/F3 (JAK2 V617F) cells
  CC50: ≤ 0.5 µM
[1]
  CC50 at 72 h: 0.5 to 1 µM
[2]; [3]
  CC50 at 72 h: 5 to 10 µM
[2]; [4]
  CC50 at 72 h: 5 to 10 µM

## COc1c(Nc2nc(Nc3cnn(CCCN(C)C)c3)ncc2C(N)=O)cccc1-c1ncn(C)n1 [Compound 28, 2-[[1-[3-(dimethylamino)propyl]pyrazol-4-yl]amino]-4-[2-methoxy-3-(1-methyl-1,2,4-triazol-3-yl)anilino]pyrimidine-5-carboxamide]
JAK2 JH2
  EC50: > 0.1 µM
Ba/F3 (JAK2 V617F) cells
  CC50: 5 to 10 µM
[1]
  CC50 at 72 h: > 10 µM
[2]; [3]
  CC50 at 72 h: > 10 µM
[2]; [4]
  CC50 at 72 h: > 10 µM

## COc1c(Nc2nc(Nc3cnn(CCN(CC(C)C)CC(C)C)c3)ncc2C(N)=O)cccc1-c1ncn(C)n1 [Compound 29, 2-(1-(2-(Diisobutylamino)ethyl)-1H-pyrazol-4-ylamino)-4-(2-methoxy-3-(1-methyl-1H-1,2,4-triazol-3-yl)phenylamino)pyrimidine-5-carboxamide]
JAK2 JH2
  EC50: > 0.1 µM
Ba/F3 (JAK2 V617F) cells
  CC50: ≤ 0.5 µM
[1]
  CC50 at 72 h: 1 to 5 µM
[2]; [3]
  CC50 at 72 h: 5 to 10 µM
[2]; [4]
  CC50 at 72 h: 1 to 5 µM

## COc1c(Nc2nc(Nc3cnn(C45CC6CC(CC(C6)C4)C5)c3)ncc2C(N)=O)cccc1-c1ncn(C)n1 [Compound 30, 2-((1-(1-Adamantyl)-1H-pyrazol-4-yl)amino)-4-((2-methoxy-3-(1-methyl-1H-1,2,4-triazol-3-yl)phenyl)amino)pyrimidine-5-carboxamide]
JAK2 JH2
  EC50: 0.01 to 0.05 µM
Ba/F3 (JAK2 V617F) cells
  CC50: ≤ 0.5 µM
[1]
  CC50 at 72 h: 0.5 to 1 µM
[2]; [3]
  CC50 at 72 h: 1 to 5 µM
[2]; [4]
  CC50 at 72 h: 1 to 5 µM
